Experimental data taken from ChEMBL document CHEMBL1201862, “PubChem BioAssay data set” (2004).
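Interpolation was linear, between the two tested concentrations surrounding the appropriate level; five concentrations were tested over 48 hours in 96-well plates. At the GI50, growth is halved.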 Calls of active or inactive are those of the source. Cut-off read from the data, not from the text of the source: active = GI50 up to about 1.1 µM and inactive = higher.

How the values were obtained:
Test in all cases: DTP human tumour cell line panel, 48 h
786-0 = system: 786-0
A498 = system: A498
A549 = system: A549
ACHN = system: ACHN
BT-549 = system: BT-549
CAKI-1 = system: CAKI-1
CCRF-CEM = system: CCRF-CEM
COLO 205 = system: COLO 205
DU-145 = system: DU-145
EKVX = system: EKVX
HCC 2998 = system: HCC 2998
HCT-116 = system: HCT-116
HCT-15 = system: HCT-15
HL-60 = system: HL-60
HOP-62 = system: HOP-62
HOP-92 = system: HOP-92
HT-29 = system: HT-29
Hs-578T = system: Hs-578T
IGROV-1 = system: IGROV-1
K562 = system: K562
KM12 = system: KM12
LOX IMVI = system: LOX IMVI
M14 = system: M14
MCF7 = system: MCF7
MDA-MB-231 = system: MDA-MB-231
MDA-MB-435 = system: MDA-MB-435
MDA-N = system: MDA-N
MOLT-4 = system: MOLT-4
Malme-3M = system: Malme-3M
NCI-H226 = system: NCI-H226
NCI-H23 = system: NCI-H23
NCI-H460 = system: NCI-H460
NCI-H522 = system: NCI-H522
NCI/ADR-RES = system: NCI/ADR-RES
OVCAR-3 = system: OVCAR-3
OVCAR-4 = system: OVCAR-4
OVCAR-5 = system: OVCAR-5
OVCAR-8 = system: OVCAR-8
PC-3 = system: PC-3
RPMI-8226 = system: RPMI-8226
RXF 393 = system: RXF 393
SF-268 = system: SF-268
SF-295 = system: SF-295
SF-539 = system: SF-539
SK-MEL-28 = system: SK-MEL-28
SK-MEL-2 = system: SK-MEL-2
SK-MEL-5 = system: SK-MEL-5
SK-OV-3 = system: SK-OV-3
SN12C = system: SN12C
SNB-19 = system: SNB-19
SNB-75 = system: SNB-75
SR = system: SR
SW-620 = system: SW-620
T47D = system: T47D
TK-10 = system: TK-10
U-251 = system: U-251
UACC-257 = system: UACC-257
UACC-62 = system: UACC-62
UO-31 = system: UO-31

For `COc1cc2cc(C(=O)N3CC(CCl)c4ccc(NCCN)cc43)[nH]c2c(OC)c1OC` (configuration not stated), the GI50 (786-0) was 0.228 µM (active), the GI50 (A498) was 0.184 µM (active) and the GI50 (A549) was 0.208 µM (active). The GI50 (ACHN) was 0.08 µM (active), the GI50 (BT-549) was 0.345 µM (active) and the GI50 (CAKI-1) was 0.143 µM (active). The GI50 (CCRF-CEM) was 0.0783 µM (active), the GI50 (COLO 205) was 0.222 µM (active) and the GI50 (DU-145) was 0.08 µM (active). The GI50 (EKVX) was 0.528 µM (active), the GI50 (HCC 2998) was 0.146 µM (active) and the GI50 (HCT-116) was 0.217 µM (active). For the same molecule, the GI50 (HCT-15) was 0.377 µM, the GI50 (HL-60) was 0.0319 µM (active) and the GI50 (HOP-62) was 0.166 µM (active). The GI50 (HOP-92) was 0.289 µM (active), the GI50 (HT-29) was 0.145 µM (active) and the GI50 (Hs-578T) was 0.472 µM (active). The GI50 (IGROV-1) was 0.112 µM (active), the GI50 (K562) was 0.11 µM (active) and the GI50 (KM12) was 0.206 µM (active). The GI50 (LOX IMVI) was 0.155 µM (active), the GI50 (M14) was 0.198 µM (active) and the GI50 (MCF7) was 0.0361 µM (active). For the same molecule, the GI50 (MDA-MB-231) was 0.223 µM (active), the GI50 (MDA-MB-435) was 0.2 µM (active) and the GI50 (MDA-N) was 0.176 µM (active). For the same molecule, the GI50 (MOLT-4) was 0.0575 µM (active), the GI50 (Malme-3M) was 0.172 µM (active) and the GI50 (NCI-H226) was 0.296 µM (active). For the same molecule, the GI50 (NCI-H23) was 0.0822 µM (active), the GI50 (NCI-H460) was 0.0658 µM (active) and the GI50 (NCI-H522) was 0.046 µM (active). For the same molecule, the GI50 (NCI/ADR-RES) was 0.208 µM (active), the GI50 (OVCAR-3) was 0.236 µM (active) and the GI50 (OVCAR-4) was 0.263 µM (active). The GI50 (OVCAR-5) was 0.337 µM (active), the GI50 (OVCAR-8) was 0.167 µM (active) and the GI50 (PC-3) was 0.117 µM (active). For the same molecule, the GI50 (RPMI-8226) was 0.153 µM (active), the GI50 (RXF 393) was 0.105 µM (active) and the GI50 (SF-268) was 0.242 µM (active). For the same molecule, the GI50 (SF-295) was 0.197 µM (active), the GI50 (SF-539) was 0.209 µM (active) and the GI50 (SK-MEL-28) was 0.249 µM (active). For the same molecule, the GI50 (SK-MEL-2) was 0.179 µM (active), the GI50 (SK-MEL-5) was 0.116 µM (active) and the GI50 (SK-OV-3) was 0.282 µM (active). For the same molecule, the GI50 (SN12C) was 0.237 µM (active), the GI50 (SNB-19) was 0.292 µM (active) and the GI50 (SNB-75) was 0.232 µM (active). The GI50 (SR) was 0.0279 µM (active), the GI50 (SW-620) was 0.151 µM (active) and the GI50 (T47D) was 0.301 µM (active). The GI50 (TK-10) was 0.33 µM (active), the GI50 (U-251) was 0.175 µM (active) and the GI50 (UACC-257) was 0.251 µM (active). The GI50 (UACC-62) was 0.111 µM (active) and the GI50 (UO-31) was 0.132 µM (active).

In the case of `O=C1NCC(CSc2nc3cc(C4CCCc5c4[nH]c4ccccc54)ccc3o2)N1` (configuration not stated), the GI50 (786-0) is reported as 43.3 µM (inactive), the GI50 (A498) is reported as 18 µM (inactive) and the GI50 (A549) is reported as 22.5 µM (inactive). For the same molecule, the GI50 (ACHN) was 34.2 µM (inactive), the GI50 (BT-549) was 47.1 µM (inactive) and the GI50 (CAKI-1) was 41.5 µM (inactive). The GI50 (CCRF-CEM) was 35.2 µM (inactive), the GI50 (COLO 205) was 61.4 µM (inactive) and the GI50 (DU-145) was 56 µM (inactive). For the same molecule, the GI50 (EKVX) was 25.6 µM (inactive), the GI50 (HCC 2998) was 95.1 µM (inactive) and the GI50 (HCT-116) was 33.4 µM (inactive). The GI50 (HCT-15) was 24.5 µM, the GI50 (HL-60) was 43.9 µM (inactive) and the GI50 (HOP-62) was > 100 µM (inactive). The GI50 (HOP-92) was 21.2 µM (inactive), the GI50 (HT-29) was 21.8 µM (inactive) and the GI50 (Hs-578T) was 38.1 µM (inactive). The GI50 (IGROV-1) was 33 µM (inactive), the GI50 (K562) was 31.5 µM (inactive) and the GI50 (KM12) was 56.4 µM (inactive). The GI50 (LOX IMVI) was 32.5 µM (inactive), the GI50 (M14) was 45.1 µM (inactive) and the GI50 (MCF7) was 39.7 µM (inactive). For the same molecule, the GI50 (MDA-MB-231) was 23.1 µM (inactive), the GI50 (MDA-MB-435) was 30.9 µM (inactive) and the GI50 (MDA-N) was 42.8 µM (inactive). For the same molecule, the GI50 (MOLT-4) was 15.2 µM (inactive), the GI50 (Malme-3M) was 53.7 µM (inactive) and the GI50 (NCI-H226) was 62.7 µM (inactive). The GI50 (NCI-H23) was 32.5 µM (inactive), the GI50 (NCI-H460) was 72.3 µM (inactive) and the GI50 (NCI-H522) was 29.2 µM (inactive). For the same molecule, the GI50 (NCI/ADR-RES) was 50.4 µM (inactive), the GI50 (OVCAR-3) was 44.1 µM (inactive) and the GI50 (OVCAR-4) was 32.2 µM (inactive). The GI50 (OVCAR-5) was 61.8 µM (inactive), the GI50 (OVCAR-8) was 30.8 µM (inactive) and the GI50 (PC-3) was 37.2 µM (inactive). For the same molecule, the GI50 (RPMI-8226) was 22.4 µM (inactive), the GI50 (RXF 393) was 26.5 µM (inactive) and the GI50 (SF-268) was 36 µM (inactive). For the same molecule, the GI50 (SF-295) was 43.5 µM (inactive), the GI50 (SF-539) was 36.4 µM (inactive) and the GI50 (SK-MEL-28) was 80.2 µM (inactive). The GI50 (SK-MEL-2) was 39.3 µM (inactive), the GI50 (SK-MEL-5) was 28.5 µM (inactive) and the GI50 (SK-OV-3) was > 100 µM (inactive). For the same molecule, the GI50 (SN12C) was 49.7 µM (inactive), the GI50 (SNB-19) was 53.7 µM (inactive) and the GI50 (SNB-75) was > 100 µM (inactive). The GI50 (SR) was 14.7 µM (inactive), the GI50 (SW-620) was 39.4 µM (inactive) and the GI50 (T47D) was 25.8 µM (inactive). The GI50 (TK-10) was 72.4 µM (inactive), the GI50 (U-251) was 51.5 µM (inactive) and the GI50 (UACC-257) was 45.1 µM (inactive). For the same molecule, the GI50 (UACC-62) was 39.6 µM (inactive) and the GI50 (UO-31) was 53.1 µM (inactive).

`CN(C)CCNc1ccc(CO)c2oc3ccc(O)cc3c(=O)c12` was tested, and the GI50 (786-0) was 8.61 µM (inactive), the GI50 (A498) was 12.7 µM (inactive) and the GI50 (A549) was 14.6 µM (inactive). For the same molecule, the GI50 (ACHN) was 7.45 µM (inactive), the GI50 (BT-549) was 14.6 µM (inactive) and the GI50 (CAKI-1) was 21.6 µM (inactive). The GI50 (CCRF-CEM) was 4.56 µM (inactive), the GI50 (COLO 205) was 8.97 µM (inactive) and the GI50 (DU-145) was 20.1 µM (inactive). For the same molecule, the GI50 (EKVX) was 21.9 µM (inactive), the GI50 (HCC 2998) was 14 µM (inactive) and the GI50 (HCT-116) was 6.4 µM (inactive). For the same molecule, the GI50 (HCT-15) was 14.4 µM, the GI50 (HL-60) was 10.8 µM (inactive) and the GI50 (HOP-62) was 10.3 µM (inactive). The GI50 (HOP-92) was 15.7 µM (inactive), the GI50 (HT-29) was 11.3 µM (inactive) and the GI50 (Hs-578T) was 14 µM (inactive). For the same molecule, the GI50 (IGROV-1) was 19.1 µM (inactive), the GI50 (K562) was 10.2 µM (inactive) and the GI50 (KM12) was 14.4 µM (inactive). For the same molecule, the GI50 (LOX IMVI) was 11.5 µM (inactive), the GI50 (M14) was 15.7 µM (inactive) and the GI50 (MCF7) was 4.83 µM (inactive). The GI50 (MDA-MB-231) was 17 µM (inactive), the GI50 (MDA-MB-435) was 13.8 µM (inactive) and the GI50 (MDA-N) was 12.8 µM (inactive). For the same molecule, the GI50 (MOLT-4) was 2.47 µM (inactive), the GI50 (Malme-3M) was 13.5 µM (inactive) and the GI50 (NCI-H226) was 11.7 µM (inactive). The GI50 (NCI-H23) was 11.5 µM (inactive), the GI50 (NCI-H460) was 4.24 µM (inactive) and the GI50 (NCI-H522) was 4.32 µM (inactive). For the same molecule, the GI50 (NCI/ADR-RES) was 21.3 µM (inactive), the GI50 (OVCAR-3) was 16.5 µM (inactive) and the GI50 (OVCAR-4) was 13.8 µM (inactive). For the same molecule, the GI50 (OVCAR-5) was 16.8 µM (inactive), the GI50 (OVCAR-8) was 7.14 µM (inactive) and the GI50 (PC-3) was 12.7 µM (inactive). The GI50 (RPMI-8226) was 12.3 µM (inactive), the GI50 (RXF 393) was 12.6 µM (inactive) and the GI50 (SF-268) was 9.31 µM (inactive). The GI50 (SF-295) was 14.2 µM (inactive), the GI50 (SF-539) was 12.3 µM (inactive) and the GI50 (SK-MEL-28) was 16.9 µM (inactive). The GI50 (SK-MEL-2) was 16.6 µM (inactive), the GI50 (SK-MEL-5) was 14.2 µM (inactive) and the GI50 (SK-OV-3) was 14.4 µM (inactive). The GI50 (SN12C) was 12.9 µM (inactive), the GI50 (SNB-19) was 17.1 µM (inactive) and the GI50 (SNB-75) was 12.6 µM (inactive). The GI50 (SR) was 1.14 µM (inactive), the GI50 (SW-620) was 8.97 µM (inactive) and the GI50 (T47D) was 13.3 µM (inactive). The GI50 (TK-10) was 17.1 µM (inactive), the GI50 (U-251) was 12.4 µM (inactive) and the GI50 (UACC-257) was 12.8 µM (inactive). The GI50 (UACC-62) was 11.5 µM (inactive) and the GI50 (UO-31) was 10.5 µM (inactive).
